Results on 16 compounds are retold here after ChEMBL document CHEMBL5512619, “Anticancer mechanism of coumarin-based derivatives” (Eur J Med Chem, 2024).

Some results are limits rather than exact numbers.

The test system of one assay is SK-OV-3. The assay can be described thus: Antiproliferative activity against human SK-OV-3 cells measured after 21 hrs by MTT assay. Format: functional, cell-based. The settings on record: SK-OV-3, 21 h. In general terms: Tetrazolium assays rely on reduction of a dye to a coloured formazan, in cell work by metabolically active cells.
In a further assay the target is Albumin (Homo sapiens, UniProt P02768). Kind of assay: Reversible binding affinity to human serum albumin.
The target in assay [1] is Receptor tyrosine-protein kinase erbB-2 (Homo sapiens, UniProt P04626). The assay can be described thus: Inhibition of HER2 (unknown origin).
A short description of assay [2]: Cytotoxicity against human Lu1 cells incubated for 72 hrs by MTT assay. It counts as functional, cell-based. Particulars: Lu1, 72 h.
Assay [3] concerns the target Epidermal growth factor receptor (Homo sapiens, UniProt P00533). Kind of assay: Inhibition of EGFR (unknown origin).
For assay [4], the system named is HeLa. Kind of assay: Cytotoxicity against human HeLa cells incubated for 72 hrs by MTT assay. Format: functional, cell-based.
The subject of assay [5] is HepG2. Kind of assay: Cytotoxicity against human HepG2 cells incubated for 72 hrs by MTT assay. It counts as functional, cell-based. Particulars: HepG2, 72 h.
Assay [6] relates to HepG2. The assay can be described thus: Cytotoxicity against human HepG2 cells. Format: functional, cell-based.
Assay [7] has as its system HeLa. Kind of assay: Cytotoxicity against human HeLa cells. Format: functional, cell-based.
Assay [8] is described as follows: Cytotoxicity against human Lu1 cells. Format: functional, cell-based.

Albumin, sequence (P02768 whole entry): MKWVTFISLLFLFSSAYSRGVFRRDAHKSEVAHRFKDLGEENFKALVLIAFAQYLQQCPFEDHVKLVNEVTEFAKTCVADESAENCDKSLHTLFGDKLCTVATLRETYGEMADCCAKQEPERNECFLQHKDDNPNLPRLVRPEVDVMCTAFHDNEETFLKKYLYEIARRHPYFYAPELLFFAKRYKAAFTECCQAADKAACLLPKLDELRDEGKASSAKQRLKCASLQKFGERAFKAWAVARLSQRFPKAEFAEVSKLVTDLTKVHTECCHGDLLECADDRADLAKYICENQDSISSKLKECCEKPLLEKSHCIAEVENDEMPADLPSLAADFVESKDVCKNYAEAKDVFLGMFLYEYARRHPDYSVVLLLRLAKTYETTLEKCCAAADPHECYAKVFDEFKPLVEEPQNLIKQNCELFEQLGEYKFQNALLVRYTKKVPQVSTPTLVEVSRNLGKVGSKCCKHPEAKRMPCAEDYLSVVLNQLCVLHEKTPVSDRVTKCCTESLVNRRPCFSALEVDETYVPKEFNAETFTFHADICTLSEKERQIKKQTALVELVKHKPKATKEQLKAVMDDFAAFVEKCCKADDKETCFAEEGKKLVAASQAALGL
Epidermal growth factor receptor, sequence (P00533 whole entry): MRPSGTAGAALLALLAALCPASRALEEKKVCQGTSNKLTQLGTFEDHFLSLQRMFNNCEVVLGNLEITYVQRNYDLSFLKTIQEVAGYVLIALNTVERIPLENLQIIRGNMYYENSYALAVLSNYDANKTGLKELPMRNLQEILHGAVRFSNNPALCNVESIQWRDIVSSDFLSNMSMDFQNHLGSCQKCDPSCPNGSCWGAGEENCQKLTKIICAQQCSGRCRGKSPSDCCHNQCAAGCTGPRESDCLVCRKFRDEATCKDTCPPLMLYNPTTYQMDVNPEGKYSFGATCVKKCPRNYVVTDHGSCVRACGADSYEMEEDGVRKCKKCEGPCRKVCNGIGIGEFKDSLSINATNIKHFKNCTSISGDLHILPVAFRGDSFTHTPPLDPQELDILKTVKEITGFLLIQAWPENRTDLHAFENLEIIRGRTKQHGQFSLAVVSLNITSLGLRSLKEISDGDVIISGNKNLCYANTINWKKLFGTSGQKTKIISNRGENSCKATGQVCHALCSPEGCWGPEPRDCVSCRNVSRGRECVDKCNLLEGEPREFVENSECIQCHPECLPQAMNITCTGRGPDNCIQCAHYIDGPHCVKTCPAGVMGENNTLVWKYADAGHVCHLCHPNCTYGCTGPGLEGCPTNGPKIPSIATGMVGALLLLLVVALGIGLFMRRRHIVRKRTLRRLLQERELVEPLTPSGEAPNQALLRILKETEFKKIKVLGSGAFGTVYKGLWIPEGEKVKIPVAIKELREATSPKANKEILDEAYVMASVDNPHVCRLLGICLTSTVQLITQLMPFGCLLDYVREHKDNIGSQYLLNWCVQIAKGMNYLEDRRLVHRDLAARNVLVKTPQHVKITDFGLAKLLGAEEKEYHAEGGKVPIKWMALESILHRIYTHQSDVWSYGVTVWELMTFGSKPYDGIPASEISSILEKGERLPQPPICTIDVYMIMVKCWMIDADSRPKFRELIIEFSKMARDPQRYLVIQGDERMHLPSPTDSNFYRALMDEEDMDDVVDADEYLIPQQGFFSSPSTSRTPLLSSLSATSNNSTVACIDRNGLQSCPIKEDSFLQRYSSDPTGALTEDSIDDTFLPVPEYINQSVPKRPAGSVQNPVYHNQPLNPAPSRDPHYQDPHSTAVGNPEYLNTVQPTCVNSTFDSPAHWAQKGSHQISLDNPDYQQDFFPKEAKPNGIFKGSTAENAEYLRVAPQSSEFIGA
Receptor tyrosine-protein kinase erbB-2, sequence (P04626 whole entry): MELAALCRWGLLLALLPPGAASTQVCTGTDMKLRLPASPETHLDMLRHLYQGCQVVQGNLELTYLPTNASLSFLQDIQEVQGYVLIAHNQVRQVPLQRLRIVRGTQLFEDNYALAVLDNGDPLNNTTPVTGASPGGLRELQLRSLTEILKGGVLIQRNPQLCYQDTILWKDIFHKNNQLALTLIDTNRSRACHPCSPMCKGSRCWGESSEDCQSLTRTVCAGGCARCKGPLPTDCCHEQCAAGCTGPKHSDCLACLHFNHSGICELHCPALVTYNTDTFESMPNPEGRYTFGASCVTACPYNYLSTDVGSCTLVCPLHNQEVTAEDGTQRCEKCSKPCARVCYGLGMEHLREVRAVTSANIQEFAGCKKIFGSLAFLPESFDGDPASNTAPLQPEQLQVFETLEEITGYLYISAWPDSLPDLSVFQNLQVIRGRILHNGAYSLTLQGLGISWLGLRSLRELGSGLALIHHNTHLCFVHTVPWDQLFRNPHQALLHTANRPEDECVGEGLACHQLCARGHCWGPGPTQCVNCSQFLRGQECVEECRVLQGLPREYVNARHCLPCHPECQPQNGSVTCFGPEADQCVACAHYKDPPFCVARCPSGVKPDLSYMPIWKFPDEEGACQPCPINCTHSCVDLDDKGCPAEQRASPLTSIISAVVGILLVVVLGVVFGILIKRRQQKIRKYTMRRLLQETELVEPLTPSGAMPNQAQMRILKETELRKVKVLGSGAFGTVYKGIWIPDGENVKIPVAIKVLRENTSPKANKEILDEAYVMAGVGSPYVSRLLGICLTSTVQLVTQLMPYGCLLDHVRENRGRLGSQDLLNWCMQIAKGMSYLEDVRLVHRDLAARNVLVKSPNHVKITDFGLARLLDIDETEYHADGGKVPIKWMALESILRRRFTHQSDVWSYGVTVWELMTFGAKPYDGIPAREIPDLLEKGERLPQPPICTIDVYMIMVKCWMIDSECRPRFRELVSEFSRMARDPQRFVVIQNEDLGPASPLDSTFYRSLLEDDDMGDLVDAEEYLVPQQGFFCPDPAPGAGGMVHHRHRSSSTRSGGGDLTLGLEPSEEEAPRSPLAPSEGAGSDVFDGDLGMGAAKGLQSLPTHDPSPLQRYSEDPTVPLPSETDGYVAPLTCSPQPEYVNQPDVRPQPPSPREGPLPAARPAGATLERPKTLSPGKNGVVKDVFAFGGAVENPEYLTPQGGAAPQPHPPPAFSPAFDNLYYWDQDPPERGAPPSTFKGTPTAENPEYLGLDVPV

On to `O=c1ccc2ccc(O[C@@H]3O[C@H](CO[C@@H]4OC[C@](O)(CO)[C@H]4O)[C@@H](O)[C@H](O)[C@H]3O)cc2o1`, for which the half-inhibitory concentration (IC50) (usually the concentration needed to halve the response being measured) with SK-OV-3 is above 100000 nM.

As for `Cc1cc(=O)oc2cc(NCc3ccccc3O)ccc12`, binding on Albumin was characterised by a dissociation constant (Kd) of 30 nM.

For `CC(C)(O[C@@H]1O[C@H](CO)[C@@H](O)[C@H](O)[C@H]1O)[C@@H]1Cc2cc3ccc(=O)oc3cc2O1`, the IC50 in the assay with SK-OV-3 was above 100000 nM.

Regarding `Cc1cc(=O)oc2cc(NCc3cc(I)cc(I)c3O)ccc12`, binding at Albumin was characterised by a dissociation constant (Kd) of 30 nM.

As to `CC(=O)OC[C@H]1O[C@@H](N(C(C)=O)C2=NN(C(C)=O)C(c3cc(=O)oc4ccc(OCCC(C)C)cc34)S2)[C@H](OC(C)=O)[C@@H](OC(C)=O)[C@@H]1OC(C)=O` (some centres not stated), the IC50 in [1] is 130 nM; in assay [2], 1180 nM; in assay [3] it was 220 nM; with HeLa [4] it was 1180 nM; in the assay with HepG2 [5], 1180 nM.

Consider `CC(=O)OC[C@H]1O[C@@H](n2c(-c3ccccc3)cs/c2=N\N=C\c2cc(=O)oc3ccc(OCC(C)C)cc23)[C@H](OC(C)=O)[C@@H](OC(C)=O)[C@@H]1OC(C)=O`, for which the IC50 in assay [1] came out at 150 nM; with HepG2 [6], 1180 nM; in [3], 150 nM; with HeLa [7], 1180 nM; in assay [8] it was 1180 nM.

With `CCCCCOc1ccc2oc(=O)cc(C3SC(N(C(C)=O)[C@@H]4O[C@H](COC(C)=O)[C@@H](OC(C)=O)[C@H](OC(C)=O)[C@H]4OC(C)=O)=NN3C(C)=O)c2c1` (some centres not stated), the IC50 was 130 nM in assay [1]; 1180 nM in assay [2]; 220 nM in [3]; 1180 nM with HeLa [4]; 1180 nM in the assay on HepG2 [5].

Consider `CC(=O)OC[C@H]1O[C@@H](N(C(C)=O)C2=NN(C(C)=O)C(c3cc(=O)oc4cc(OCC(C)C)ccc34)S2)[C@H](OC(C)=O)[C@@H](OC(C)=O)[C@@H]1OC(C)=O` (some centres not stated), for which the half-inhibitory concentration (IC50) in assay [1] stood at 130 nM; in assay [2], 1180 nM; in [3], 220 nM; in the assay on HeLa [4], 1180 nM; with HepG2 [5], 1180 nM.

Turning to `CC(=O)OC[C@H]1O[C@@H](n2c(-c3ccccc3)cs/c2=N\N=C\c2cc(=O)oc3cc(OCCC(C)C)ccc23)[C@H](OC(C)=O)[C@@H](OC(C)=O)[C@@H]1OC(C)=O`, the IC50 in [1] stood at 150 nM; in the assay with HepG2 [6], 1180 nM; in assay [3], 150 nM; in the assay with HeLa [7], 1180 nM; in assay [8], 1180 nM.

Consider `Cc1cc(=O)oc2cc(NCc3cc(Br)cc(Br)c3O)ccc12`, for which, at Albumin, the Kd (usually the equilibrium constant for the complex coming apart) amounted to 30 nM.

As to `CCOc1ccc2oc(=O)cc(C3SC(N(C(C)=O)[C@@H]4O[C@H](COC(C)=O)[C@H](OC(C)=O)[C@H](OC(C)=O)[C@H]4OC(C)=O)=NN3C(C)=O)c2c1` (some centres not stated), the IC50 in assay [1] turned out to be 130 nM; in assay [2], 1180 nM; in [3] it was 220 nM; with HeLa [4], 1180 nM; with HepG2 [5], 1180 nM.

Turning to `CC(=O)OC[C@H]1O[C@@H](N(C(C)=O)C2=NN(C(C)=O)C(c3cc(=O)oc4cc(OCCC(C)C)ccc34)S2)[C@H](OC(C)=O)[C@@H](OC(C)=O)[C@@H]1OC(C)=O` (some centres not stated), the IC50 in [1] amounted to 130 nM; in [2], 1180 nM; in assay [3] it was 220 nM; in the assay on HeLa [4], 1180 nM; in the assay with HepG2 [5] it was 1180 nM.

With `CCCCOc1ccc2oc(=O)cc(C3SC(N(C(C)=O)[C@@H]4O[C@H](COC(C)=O)[C@@H](OC(C)=O)[C@H](OC(C)=O)[C@H]4OC(C)=O)=NN3C(C)=O)c2c1` (some centres not stated), the IC50 in assay [1] worked out at 130 nM; in assay [2] it was 1180 nM; in [3] it was 220 nM; in the assay with HeLa [4], 1180 nM; with HepG2 [5] it was 1180 nM.

Consider `CCOc1ccc2c(C3SC(N(C(C)=O)[C@@H]4O[C@H](COC(C)=O)[C@H](OC(C)=O)[C@H](OC(C)=O)[C@H]4OC(C)=O)=NN3C(C)=O)cc(=O)oc2c1` (some centres not stated), for which the IC50 in [1] came out at 130 nM; in assay [2] it was 1180 nM; in [3], 220 nM; with HeLa [4] it was 1180 nM; with HepG2 [5] it was 1180 nM.

In the case of `Cc1cc(=O)oc2cc(NCc3cc([N+](=O)[O-])ccc3O)ccc12`, the Kd on Albumin is 30 nM.

In the case of `Cc1cc(=O)oc2cc(NCc3cc(Cl)cc(Cl)c3O)ccc12`, the affinity at Albumin, expressed as Kd, was 30 nM.
